We go through 11 compounds from PubChem BioAssay AID258 (DTP/NCI, 2004).

Values joined by “and” are separate entries in the source; they are usually repeats but may differ in a detail not shown here. Equal values may be shown once. Toxic doses and inconclusive results are not listed.

In the assay the test system is CD2F1 mice, L1210 leukemia sc, survival T/C. The assay is described as follows: NCI In Vivo Anticancer Drug Screen. Data for tumor model L1210 Leukemia (subcutaneous) in CD2F1 (CDF1) mice. As to conditions: endpoint: median survival time, higher = longer survival. In a few lines:
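Antitumor activity is scored in tumor-bearing mice by comparing survival or tumor size of treated animals against vehicle-treated controls, reported as T/C.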

[1] abbreviates: dose: 39.0 mg/kg/injection, schedule: Q01DX Z (sc), vehicle: carboxymethylcellulose (CMC).

Consider `CC[n+]1c(-c2ccccc2)c2cc(N)ccc2c2ccc(N)cc21`, for which the T/C reads like this: (dose: 5.0 mg/kg/injection, schedule: Q01DX Z (sc), vehicle: carboxymethylcellulose (CMC)) 100 % of control; (dose: 8.4 mg/kg/injection, schedule: Q01DX Z (sc), vehicle: carboxymethylcellulose (CMC)) 94 % of control; (dose: 14.0 mg/kg/injection, schedule: Q01DX Z (sc), vehicle: carboxymethylcellulose (CMC)) 100 % of control; (dose: 23.0 mg/kg/injection, schedule: Q01DX Z (sc), vehicle: carboxymethylcellulose (CMC)) 100 % of control; under setting [1], 105 % of control; (dose: 64.0 mg/kg/injection, schedule: Q01DX Z (sc), vehicle: carboxymethylcellulose (CMC)) 111 % of control.

On to `Nc1nc2c(c(=O)[nH]1)NC(CCNc1ccc(C(=O)NC(CCC(=O)O)C(=O)O)cc1)CN2` (stereo not given), for which the T/C was 120 % of control (dose: 25.0 mg/kg/injection, schedule: Q03HX Z (ip), vehicle: other); 120 % of control (dose: 50.0 mg/kg/injection, schedule: Q03HX Z (ip), vehicle: other); 120 % of control (dose: 100.0 mg/kg/injection, schedule: Q01DX Z (ip), vehicle: other); 100 % of control (dose: 100.0 mg/kg/injection, schedule: Q04DX Z (ip), vehicle: other); 100 % of control (dose: 200.0 mg/kg/injection, schedule: Q04DX Z (ip), vehicle: other); 100 % of control (dose: 800.0 mg/kg/injection, schedule: Q01DX Z (ip), vehicle: other).

Regarding `CCN(CC)CCNc1ccc(CO)c2sc3ccccc3c(=O)c12`, the T/C (dose: 10.0 mg/kg/injection, schedule: Q01DX009 (ip), vehicle: water) is 103 % of control and 110 % of control and 116 % of control; the T/C (dose: 20.0 mg/kg/injection, schedule: Q01DX009 (ip), vehicle: water) was 113 % of control and 115 % of control and 121 % of control; the T/C (dose: 40.0 mg/kg/injection, schedule: Q01DX009 (ip), vehicle: water) is 150 % of control; the T/C (dose: 80.0 mg/kg/injection, schedule: Q01DX009 (ip), vehicle: water) was 100 % of control; the T/C (dose: 160.0 mg/kg/injection, schedule: Q01DX009 (ip), vehicle: water) is 103 % of control and 86 % of control and 94 % of control.

With `O=C(NO)c1cc(O)c(O)c(O)c1`, the T/C is 97 % of control and 100 % of control (dose: 25.0 mg/kg/injection, schedule: Q01DX009 (ip), vehicle: distilled water + Tween-80); 104 % of control (dose: 50.0 mg/kg/injection, schedule: Q01DX009 (ip), vehicle: distilled water + Tween-80); 100 % of control and 102 % of control (dose: 100.0 mg/kg/injection, schedule: Q01DX009 (ip), vehicle: distilled water + Tween-80); 124 % of control (dose: 200.0 mg/kg/injection, schedule: Q01DX009 (ip), vehicle: distilled water + Tween-80); 90 % of control (dose: 400.0 mg/kg/injection, schedule: Q01DX009 (ip), vehicle: distilled water + Tween-80).

Turning to `O=C(Nc1cccc(C2=NCCN2)c1)c1ccc(-c2ccc(C(=O)Nc3cccc(C4=NCCN4)c3)cc2)cc1`, the T/C by setting is: (dose: 23.0 mg/kg/injection, schedule: Q01DX Z (sc), vehicle: water) 110 % of control; (dose: 39.0 mg/kg/injection, schedule: Q01DX Z (sc), vehicle: water) 105 % of control; (dose: 65.0 mg/kg/injection, schedule: Q01DX Z (sc), vehicle: water) 100 % of control; (dose: 108.0 mg/kg/injection, schedule: Q01DX Z (sc), vehicle: water) 105 % of control; (dose: 180.0 mg/kg/injection, schedule: Q01DX Z (sc), vehicle: water) 100 % of control.

With `CC(=O)Nc1ccc2nc3ccc(NC(C)=O)cc3[n+](-c3ccccc3)c2c1`, the T/C is 90 % of control (dose: 8.4 mg/kg/injection, schedule: Q01DX Z (ip), vehicle: saline); 95 % of control (dose: 14.0 mg/kg/injection, schedule: Q01DX Z (ip), vehicle: saline); 100 % of control (dose: 14.0 mg/kg/injection, schedule: Q01DX Z (sc), vehicle: saline); 90 % of control (dose: 23.0 mg/kg/injection, schedule: Q01DX Z (ip), vehicle: saline); 100 % of control (dose: 23.0 mg/kg/injection, schedule: Q01DX Z (sc), vehicle: saline); 100 % of control (dose: 39.0 mg/kg/injection, schedule: Q01DX Z (ip), vehicle: saline). The T/C by setting is: (dose: 39.0 mg/kg/injection, schedule: Q01DX Z (sc), vehicle: saline) 100 % of control; (dose: 65.0 mg/kg/injection, schedule: Q01DX Z (ip), vehicle: saline) 100 % of control; (dose: 65.0 mg/kg/injection, schedule: Q01DX Z (sc), vehicle: saline) 105 % of control; (dose: 108.0 mg/kg/injection, schedule: Q01DX Z (ip), vehicle: saline) 100 % of control; (dose: 108.0 mg/kg/injection, schedule: Q01DX Z (sc), vehicle: saline) 100 % of control; (dose: 180.0 mg/kg/injection, schedule: Q01DX Z (sc), vehicle: saline) 110 % of control.

Regarding `Clc1ccc(CNc2ncnc3[nH]ncc23)cc1Cl`, the T/C by setting is: (dose: 8.4 mg/kg/injection, schedule: Q01DX Z (sc), vehicle: methylcellulose (MC)) 95 % of control; (dose: 14.0 mg/kg/injection, schedule: Q01DX Z (sc), vehicle: methylcellulose (MC)) 95 % of control; (dose: 23.0 mg/kg/injection, schedule: Q01DX Z (sc), vehicle: methylcellulose (MC)) 95 % of control; (dose: 39.0 mg/kg/injection, schedule: Q01DX Z (sc), vehicle: methylcellulose (MC)) 100 % of control; (dose: 65.0 mg/kg/injection, schedule: Q01DX Z (sc), vehicle: methylcellulose (MC)) 104 % of control; (dose: 108.0 mg/kg/injection, schedule: Q01DX Z (sc), vehicle: methylcellulose (MC)) 114 % of control. Under “dose: 180.0 mg/kg/injection, schedule: Q01DX Z (sc), vehicle: methylcellulose (MC)”, the T/C is 104 % of control.

As for `Nc1nc(N)c2[nH]cnc2n1`, the T/C (dose: 20.0 mg/kg/injection, schedule: Q01DX Z (sc), vehicle: steriod suspending solution) is 106 % of control; the T/C (dose: 40.0 mg/kg/injection, schedule: Q01DX Z (sc), vehicle: steriod suspending solution) is 100 % of control; the T/C (dose: 80.0 mg/kg/injection, schedule: Q01DX Z (sc), vehicle: steriod suspending solution) was 100 % of control; the T/C (dose: 160.0 mg/kg/injection, schedule: Q01DX Z (sc), vehicle: steriod suspending solution) is 100 % of control.

With `COC(=O)C1(F)C(=O)NC(=O)NC1OC` (stereo not given), the T/C (dose: 50.0 mg/kg/injection, schedule: Q01DX009 (ip), vehicle: Klucel (hydroxypropylcellulose) (HPC)) is 110 % of control; the T/C (dose: 100.0 mg/kg/injection, schedule: Q01DX009 (ip), vehicle: Klucel (hydroxypropylcellulose) (HPC)) was 120 % of control; the T/C (dose: 120.0 mg/kg/injection, schedule: Q01DX009 (ip), vehicle: Klucel (hydroxypropylcellulose) (HPC)) was 163 % of control; the T/C (dose: 200.0 mg/kg/injection, schedule: Q01DX009 (ip), vehicle: Klucel (hydroxypropylcellulose) (HPC)) was 159 % of control; the T/C (dose: 333.33 mg/kg/injection, schedule: Q01DX009 (ip), vehicle: Klucel (hydroxypropylcellulose) (HPC)) is 120 % of control; the T/C (dose: 400.0 mg/kg/injection, schedule: Q01DX009 (ip), vehicle: Klucel (hydroxypropylcellulose) (HPC)) is 105 % of control. In addition, the T/C is, setting by setting: (dose: 555.56 mg/kg/injection, schedule: Q01DX009 (ip), vehicle: Klucel (hydroxypropylcellulose) (HPC)) 110 % of control; (dose: 800.0 mg/kg/injection, schedule: Q01DX009 (ip), vehicle: Klucel (hydroxypropylcellulose) (HPC)) 98 % of control.

As to `CN(C)c1ccc(/C=C2\C=Cc3ccccc32)cc1`, the T/C by setting is: under setting [1], 100 % of control; (dose: 65.0 mg/kg/injection, schedule: Q01DX Z (sc), vehicle: carboxymethylcellulose (CMC)) 100 % of control; (dose: 108.0 mg/kg/injection, schedule: Q01DX Z (sc), vehicle: carboxymethylcellulose (CMC)) 100 % of control; (dose: 180.0 mg/kg/injection, schedule: Q01DX Z (sc), vehicle: carboxymethylcellulose (CMC)) 100 % of control; (dose: 300.0 mg/kg/injection, schedule: Q01DX Z (sc), vehicle: carboxymethylcellulose (CMC)) 100 % of control.

For `Nc1nc2n[nH]nc2c(=O)[nH]1`, the T/C is 122 % of control (dose: 50.0 mg/kg/injection, schedule: Q01DX009 (sc), vehicle: saline) and 114 % of control (dose: 75.0 mg/kg/injection, schedule: Q01DX009 (sc), vehicle: saline).
